# According to patent publication US20260027068A1, “METHODS OF ADM[…]-KETAMINE” (Perception Neuroscience, Inc., priority 2022, published 2026):
# Assays:
# healthy subjects = tested on: healthy subjects
# Description: To date, there has been one clinical trial that evaluated the safety of R(−)-ketamine.
# [1] = Systolic blood pressure (vital signs)
# Protocol: The Investigational Medicinal Product (IMP) R(−)-ketamine hydrochloride in sterile water for intravenous injection was investigated as an […] treatment of TRD. The International Union of Pure and Applied Chemistry (IUPAC) name is of the IMP is (2R)-2-(2-chlorophenyl)-2-(methylamino)cyclohexan-1-one. Subjects received the solution at either 30 mg or 60 mg dose, or a placebo. The IMP or placebo was administered on Day 1 as a single IV infusion via an electronic infusion pump over 40 minutes. The duration of study participation for each subject was up to 29 days including a screening period, a 3-day in-clinic visit, and 2 follow-up visits. 101 subjects were enrolled in approximately 20 study centers in the EU and the US.
# Tympanic or temporal temperature, heart rate, blood pressure (SBP/DBP), respiratory rate, and SpO2 were assessed. Blood pressure and pulse measurements will be assessed with a completely automated device while the subject is supine or semi-supine. Manual techniques will be used only if an automated device is not available. Blood pressure and pulse measurements should be preceded by at least 5 minutes of rest for the subject in a quiet setting without distractions (e.g., television, cell phones). An abnormal blood pressure value at screening may be repeated once after 5 minutes of relaxation to determine the subject's eligibility. Blood pressure was recorded using the same arm and position (supine or semi-supine) throughout the study, where possible. Vital signs (to be taken before blood collection for laboratory tests) consisted of 1 pulse and 3 blood pressure measurements (3 consecutive blood pressure readings will be recorded at intervals of at least 1 minute). The average of the 3 blood pressure readings was recorded in the CRF. A pulse oximeter was used to measure peripheral capillary oxygen saturation (SpO2) continuously from pre-dose until 4-hours post-dose. A pulse oximeter was clipped onto the finger or foot of the subject, and light will be sent through the finger or foot and measured on the other side.
# In these tables, baseline value is defined as the last non-missing value prior to study drug administration.
compound,measurement,setting,value
"CN[C@@]1(c2ccccc2Cl)CCCCC1=O.Cl [R(−)-ketamine, (2R)-2-(2-chlorophenyl)-2-(methylamino)cyclohexan-1-one]",Safety findings compared with 100 mg or 150 mg doses,healthy subjects; 30 mg and 60 mg doses,"fewer transient elevations in mean systemic blood pressure, less sedation, fewer psychological or psychotic and dissociative effects, and fewer episodes of altered consciousness"
same,Dose level most similar to 15 mg S(+)-ketamine in terms of safety profile,healthy subjects; healthy subjects,60 mg
same,Doses with acceptable safety profiles,"healthy subjects; single 40-minute IV infusions, healthy subjects",≤ 150 mg
same,"Subjects with change from baseline systolic blood pressure >40 mmHg, number",[1]; 30 mg,0 n
same,"Subjects with change from baseline systolic blood pressure >40 mmHg, percent",[1]; 30 mg,0.0%
same,"Subjects with post-baseline systolic blood pressure >180 mmHg, number",[1]; 30 mg,0 n
same,"Subjects with post-baseline systolic blood pressure >180 mmHg, percent",[1]; 30 mg,0.0%
same,Systolic blood pressure: Mean,"[1]; 30 mg, Day 1, 15 minutes",116.8 mmHg
same,Systolic blood pressure: Median,"[1]; 30 mg, Day 1, 15 minutes",119.0 mmHg
same,Systolic blood pressure: Mean,"[1]; 30 mg, Day 1, 40 minutes",120.1 mmHg
same,Systolic blood pressure: Median,"[1]; 30 mg, Day 1, 40 minutes",122.0 mmHg
same,Systolic blood pressure: Mean,"[1]; 30 mg, Day 1, 60 minutes",117.7 mmHg
same,Systolic blood pressure: Median,"[1]; 30 mg, Day 1, 60 minutes",119.5 mmHg
same,Systolic blood pressure: Mean,"[1]; 30 mg, Day 1, 2 hours",118.7 mmHg
same,Systolic blood pressure: Median,"[1]; 30 mg, Day 1, 2 hours",122.0 mmHg
same,Systolic blood pressure: Mean,"[1]; 30 mg, Day 1, 4 hours",119.0 mmHg
same,Systolic blood pressure: Median,"[1]; 30 mg, Day 1, 4 hours",120.0 mmHg
same,Systolic blood pressure: Mean,"[1]; 30 mg, Day 1, 6 hours",118.0 mmHg
same,Systolic blood pressure: Median,"[1]; 30 mg, Day 1, 6 hours",120.0 mmHg
same,Systolic blood pressure: Mean,"[1]; 30 mg, Day 2 - Discharge",118.0 mmHg
same,Systolic blood pressure: Median,"[1]; 30 mg, Day 2 - Discharge",120.0 mmHg
same,Systolic blood pressure: Mean,"[1]; 30 mg, Day 8",119.2 mmHg
same,Systolic blood pressure: Median,"[1]; 30 mg, Day 8",121.0 mmHg
same,Systolic blood pressure: Mean,"[1]; 30 mg, Day 15",123.4 mmHg
same,Systolic blood pressure: Median,"[1]; 30 mg, Day 15",122.0 mmHg
same,"Systolic blood pressure: Change from Baseline, Mean","[1]; 30 mg, to Day 1, 15 minutes",1.2 mmHg
same,"Systolic blood pressure: Change from Baseline, Median","[1]; 30 mg, to Day 1, 15 minutes",−1.0 mmHg
same,"Systolic blood pressure: Change from Baseline, Mean","[1]; 30 mg, to Day 1, 40 minutes",2.0 mmHg
same,"Systolic blood pressure: Change from Baseline, Median","[1]; 30 mg, to Day 1, 40 minutes",0.0 mmHg
same,"Systolic blood pressure: Change from Baseline, Mean","[1]; 30 mg, to Day 1, 60 minutes",2.4 mmHg
same,"Systolic blood pressure: Change from Baseline, Median","[1]; 30 mg, to Day 1, 60 minutes",2.5 mmHg
same,"Systolic blood pressure: Change from Baseline, Mean","[1]; 30 mg, to Day 1, 2 hours",0.6 mmHg
same,"Systolic blood pressure: Change from Baseline, Median","[1]; 30 mg, to Day 1, 2 hours",0.0 mmHg
same,"Systolic blood pressure: Change from Baseline, Mean","[1]; 30 mg, to Day 1, 4 hours",0.9 mmHg
same,"Systolic blood pressure: Change from Baseline, Median","[1]; 30 mg, to Day 1, 4 hours",−1.0 mmHg
same,"Systolic blood pressure: Change from Baseline, Mean","[1]; 30 mg, to Day 1, 6 hours",−0.1 mmHg
same,"Systolic blood pressure: Change from Baseline, Median","[1]; 30 mg, to Day 1, 6 hours",−2.0 mmHg
same,"Systolic blood pressure: Change from Baseline, Mean","[1]; 30 mg, to Day 2 - Discharge",−0.1 mmHg
same,"Systolic blood pressure: Change from Baseline, Median","[1]; 30 mg, to Day 2 - Discharge",−1.0 mmHg
same,"Systolic blood pressure: Change from Baseline, Mean","[1]; 30 mg, to Day 8",1.2 mmHg
same,"Systolic blood pressure: Change from Baseline, Median","[1]; 30 mg, to Day 8",1.0 mmHg
same,"Systolic blood pressure: Change from Baseline, Mean","[1]; 30 mg, to Day 15",5.2 mmHg
same,"Systolic blood pressure: Change from Baseline, Median","[1]; 30 mg, to Day 15",3.0 mmHg
same,"Subjects with change from baseline systolic blood pressure >40 mmHg, number",[1]; 60 mg,1 n
same,"Subjects with change from baseline systolic blood pressure >40 mmHg, percent",[1]; 60 mg,2.9%
same,"Subjects with post-baseline systolic blood pressure >180 mmHg, number",[1]; 60 mg,0 n
same,"Subjects with post-baseline systolic blood pressure >180 mmHg, percent",[1]; 60 mg,0.0%
same,Systolic blood pressure: Mean,"[1]; 60 mg, Day 1, 15 minutes",123.6 mmHg
same,Systolic blood pressure: Median,"[1]; 60 mg, Day 1, 15 minutes",124.5 mmHg
same,Systolic blood pressure: Mean,"[1]; 60 mg, Day 1, 40 minutes",123.0 mmHg
same,Systolic blood pressure: Median,"[1]; 60 mg, Day 1, 40 minutes",122.0 mmHg
same,Systolic blood pressure: Mean,"[1]; 60 mg, Day 1, 60 minutes",123.9 mmHg
same,Systolic blood pressure: Median,"[1]; 60 mg, Day 1, 60 minutes",124.0 mmHg
same,Systolic blood pressure: Mean,"[1]; 60 mg, Day 1, 2 hours",119.0 mmHg
same,Systolic blood pressure: Median,"[1]; 60 mg, Day 1, 2 hours",120.0 mmHg
same,Systolic blood pressure: Mean,"[1]; 60 mg, Day 1, 4 hours",119.1 mmHg
same,Systolic blood pressure: Median,"[1]; 60 mg, Day 1, 4 hours",121.0 mmHg
same,Systolic blood pressure: Mean,"[1]; 60 mg, Day 1, 6 hours",119.7 mmHg
same,Systolic blood pressure: Median,"[1]; 60 mg, Day 1, 6 hours",119.5 mmHg
same,Systolic blood pressure: Mean,"[1]; 60 mg, Day 2 - Discharge",120.8 mmHg
same,Systolic blood pressure: Median,"[1]; 60 mg, Day 2 - Discharge",122.0 mmHg
same,Systolic blood pressure: Mean,"[1]; 60 mg, Day 8",123.2 mmHg
same,Systolic blood pressure: Median,"[1]; 60 mg, Day 8",122.0 mmHg
same,Systolic blood pressure: Mean,"[1]; 60 mg, Day 15",120.3 mmHg
same,Systolic blood pressure: Median,"[1]; 60 mg, Day 15",121.0 mmHg
same,"Systolic blood pressure: Change from Baseline, Mean","[1]; 60 mg, to Day 1, 15 minutes",4.4 mmHg
same,"Systolic blood pressure: Change from Baseline, Median","[1]; 60 mg, to Day 1, 15 minutes",1.5 mmHg
same,"Systolic blood pressure: Change from Baseline, Mean","[1]; 60 mg, to Day 1, 40 minutes",4.9 mmHg
same,"Systolic blood pressure: Change from Baseline, Median","[1]; 60 mg, to Day 1, 40 minutes",3.0 mmHg
same,"Systolic blood pressure: Change from Baseline, Mean","[1]; 60 mg, to Day 1, 60 minutes",5.3 mmHg
same,"Systolic blood pressure: Change from Baseline, Median","[1]; 60 mg, to Day 1, 60 minutes",5.0 mmHg
same,"Systolic blood pressure: Change from Baseline, Mean","[1]; 60 mg, to Day 1, 2 hours",0.9 mmHg
same,"Systolic blood pressure: Change from Baseline, Median","[1]; 60 mg, to Day 1, 2 hours",1.0 mmHg
same,"Systolic blood pressure: Change from Baseline, Mean","[1]; 60 mg, to Day 1, 4 hours",1.0 mmHg
same,"Systolic blood pressure: Change from Baseline, Median","[1]; 60 mg, to Day 1, 4 hours",0.0 mmHg
same,"Systolic blood pressure: Change from Baseline, Mean","[1]; 60 mg, to Day 1, 6 hours",1.4 mmHg
same,"Systolic blood pressure: Change from Baseline, Median","[1]; 60 mg, to Day 1, 6 hours",2.0 mmHg
same,"Systolic blood pressure: Change from Baseline, Mean","[1]; 60 mg, to Day 2 - Discharge",2.7 mmHg
same,"Systolic blood pressure: Change from Baseline, Median","[1]; 60 mg, to Day 2 - Discharge",1.0 mmHg
same,"Systolic blood pressure: Change from Baseline, Mean","[1]; 60 mg, to Day 8",5.0 mmHg
same,"Systolic blood pressure: Change from Baseline, Median","[1]; 60 mg, to Day 8",2.0 mmHg
same,"Systolic blood pressure: Change from Baseline, Mean","[1]; 60 mg, to Day 15",2.1 mmHg
same,"Systolic blood pressure: Change from Baseline, Median","[1]; 60 mg, to Day 15",0.0 mmHg
